Assay results from patent US20110306606A1, “NOVEL 2,6-SUBSTITUTED-3-NITROPYRIDINE DERIVATIVE, METHOD FOR PREPARING SAME, AND PHARMACEUTICAL COMPOSITION INCLUDING SAME” (priority 2008, published 2011).
Read-outs that look alike come from different tables or passages of the source.

Legend:
[1] = test system: MC3T3-E1 cells; assay: Alkaline phosphatase (ALP) activity in MC3T3-E1 cells; type: cell-based; conditions: 1 μM compound, 3 days; for activity at 1 µM: Mus musculus, 72 h, MC3T3-E1 cell, read-out: ALP activity (1 μM, % of Control) MC3T3-E1 cell
Procedure: Differentiation and activity of osteoblasts were indirectly evaluated by measuring an ALP activity having a close relationship with osteogenesis.
Osteoblasts (Calvarial cells) prepared in Experimental Example 1 and MC3T3-E1 cells (available from RIKEN Cell Bank, Japan) were collected in α-MEM supplemented with 10% FBS, followed by cell counting. The cells were dispensed into 24-well cultureware at a density of 2×10^4 cells/well. After culturing of the cells for 24 hours, the culture media were discarded and replaced with fresh media in which test compounds were diluted to a concentration of 1 μM (1 mL/well). In addition, the vehicle control group containing 0.1% DMSO was also treated. […] When the experiment was terminated, the supernatant was removed and the cells were washed three times with cold phosphate buffer at 4°. 0.2% Triton X-100 was added to the washed cells which were then subjected to three cycles of freezing at −70° and thawing at room temperature for the complete lysis of cells. The cell extracts were pooled and centrifuged to collect the cell supernatant which was used for the measurement of ALP activity and proteins. The protein concentration was measured using a BCA assay kit (manufactured by Sigma-Aldrich). For the measurement of ALP activity, p-nitrophenylphosphate was added to the cell supernatant which was then incubated at 37° for 30 minutes, and the reaction was terminated with the addition of 50 μL of 0.2N sodium hydroxide. The standard curve was plotted at the absorbance of 405 nm using p-nitrophenol as a standard material and then the absorbance of test materials thus reacted was measured to determine the production amount of p-nitrophenol.
The ALP activity was calculated by dividing the amount of p-nitrophenol produced from each test material by the protein amount and the reaction time. Therefore, the unit of ALP activity was given in terms of p-nitrophenol/μg protein/min. The results are given in Tables 28-1 and 28-2 where the ALP activity unit of each test material was given in terms of % change through the comparison between the individual test materials and the vehicle control group.

[2] = test system: Osteoblasts (Calvarial cells); conditions: ICR, mouse, 72 h, 1 μM
[3] = test system: formation of osteoclasts in co-culture of bone marrow cells and osteoblasts; assay: Osteoclastogenesis inhibition via co-culture system (TRAP staining); type: cell-based, mice; conditions: Mus musculus, Osteoclast, 168 h; 1 μM compound, 7 days co-culture, TRAP-positive multinucleated osteoclasts vs vehicle control
Summary of the method: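 Bone marrow cells from male ddY mice were co-cultured with osteoblasts for 7 days in α-MEM/10% FBS with 10^−8 M 1α,25-dihydroxyvitamin D3 and dexamethasone. Compound was present at 1 μM final and refreshed every 2–3 days. TRAP-positive cells with 6–7 nuclei were counted, with % inhibition relative to DMSO vehicle (n=4).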

[4] = test system: Osteoblasts (Calvarial cells); assay: Alkaline phosphatase (ALP) activity in osteoblasts (Calvarial cells); type: cell-based, mice; conditions: Mus musculus, 72 h; 1 μM compound, 3 days, Calvarial cell; read-out: ALP activity (1 μM, % of Control) Calvarial cell
Summary of the method: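 Primary calvarial osteoblasts or MC3T3-E1 cells in α-MEM with 10% FBS were treated with 1 μM compound, against a 0.1% DMSO vehicle. Cell lysates were incubated with p-nitrophenylphosphate at 37° for 30 minutes and read at 405 nm. ALP activity was expressed as p-nitrophenol/μg protein/min and reported as % change versus vehicle.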

[5] = test system: Osteoblasts (Calvarial cells); assay: Cytotoxicity test (MTT); conditions: 1 μM compound, 72 hours, in comparison with vehicle control

SMILES	activity at 1 µM [1] [%]	Cell viability (%) Calvarial cell [2] [%]	inhibition at 1 µM [3] [%]	activity at 1 µM [4] [%]	ALP activity (1 μM, % of Control) MC3T3-E1 cell [1]	Cell viability (%) Calvarial cell [5] [%]
Cc1ccc(Nc2nc(NCCCn3ccnc3)ccc2[N+](=O)[O-])cc1 [Compound 9, 2-(4-methylphenylamino)-6-[(3-imidazol-1-yl)propylamino]-3-nitropyridine]	175	121	93	129		
COc1ccc(Nc2nc(NC(C)C)ccc2[N+](=O)[O-])cc1 [Compound 16, 2-(4-methoxyphenylamino)-6-(isopropylamino)-3-nitropyridine]	118	100				
COc1ccc(Nc2nc(N(C)CC3OCCO3)ccc2[N+](=O)[O-])cc1 [Compound 18, 2-(4-methoxyphenylamino)-6-[(N-[1,3]-dioxolan-2-ylmethyl)methylamino]-3-nitropyridine]					113 % of Control	91
COc1ccc(Nc2nc(N3CCN=C3C)ccc2[N+](=O)[O-])cc1 [Compound 20, 2-(4-methoxyphenylamino)-6-[(2-methyl-4,5-dihydro)imidazol-1-yl]-3-nitropyridine]					124 % of Control	
COc1ccc(Nc2nc(-n3ccnc3C(C)C)ccc2[N+](=O)[O-])cc1 [Compound 21, 2-(4-methoxyphenylamino)-6-[(2-isopropyl)imidazol-1-yl]-3-nitropyridine]	124	90				
COc1ccc(Nc2nc(NCc3ccncc3)ccc2[N+](=O)[O-])cc1 [Compound 22, 2-(4-methoxyphenylamino)-6-[(4-pyridyl)methylamino]-3-nitropyridine]	123	92		121		
COc1ccc(Nc2nc(NCCCn3ccnc3)ccc2[N+](=O)[O-])cc1 [Compound 25, 2-(4-methoxyphenylamino)-6-[(3-imidazol-1-yl)propylamino]-3-nitropyridine]	148	101	98	126		
CC(C)(C)c1ccc(Nc2nc(NCCCn3ccnc3)ccc2[N+](=O)[O-])cc1 [Compound 39, 2-[4-(t-butyl)phenylamino]-6-[(3-imidazol-1-yl)propylamino]-3-nitropyridine]	175	111	98			
CC(C)(C)c1ccc(Nc2nc(NCCc3ccccn3)ccc2[N+](=O)[O-])cc1 [Compound 40, 2-[4-(t-butyl)phenylamino]-6-[2-(2-pyridyl)ethylamino]-3-nitropyridine]	210	82	89	126		
CNc1ccc([N+](=O)[O-])c(Nc2ccc(C#N)cc2)n1 [Compound 45, 2-(4-cyanophenylamino)-6-(methylamino)-3-nitropyridine]	124	89		133		
N#Cc1ccc(Nc2nc(N3CCC(O)CC3)ccc2[N+](=O)[O-])cc1 [Compound 47, 2-(4-cyanophenylamino)-6-(4-hydroxypiperidino)-3-nitropyridine]	117	88		111		
CC(C)c1nccn1-c1ccc([N+](=O)[O-])c(Nc2ccc(C#N)cc2)n1 [Compound 49, 2-(4-cyanophenylamino)-6-[(2-isopropyl)imidazol-1-yl]-3-nitropyridine]	122	96		112		
N#Cc1ccc(Nc2nc(NCc3ccncc3)ccc2[N+](=O)[O-])cc1 [Compound 50, 2-(4-cyanophenylamino)-6-[(4-pyridyl)methylamino]-3-nitropyridine]	177	115	94	149		
N#Cc1cccc(Nc2nc(NCCCn3ccnc3)ccc2[N+](=O)[O-])c1 [Compound 53, 2-[3-cyanophenylamino]-6-[(3-imidazol-1-yl)propylamino]-3-nitropyridine]	121	115	97	134		
O=[N+]([O-])c1ccc(NCc2ccncc2)nc1Nc1ccc(-n2ccnc2)cc1 [Compound 94, 2-[4-(imidazol-1-yl)phenylamino]-6-[(4-pyridyl)methylamino]-3-nitropyridine]	134	85	93			
O=[N+]([O-])c1ccc(NCCCn2ccnc2)nc1Nc1ccc(-n2ccnc2)cc1 [Compound 95, 2-[4-(imidazol-1-yl)phenylamino]-6-[(3-imidazol-1-yl)propylamino]-3-nitropyridine]	185	93		138		
CNc1ccc([N+](=O)[O-])c(Nc2cccc(C(C)=O)c2)n1 [Compound 96, 2-(3-acetylphenylamino)-6-(methylamino)-3-nitropyridine]	137	90				
CC(=O)c1cccc(Nc2nc(N3CCN=C3C)ccc2[N+](=O)[O-])c1 [Compound 100, 2-(3-acetylphenylamino)-6-[(2-methyl-4,5-dihydro)imidazol-1-yl]-3-nitropyridine]					126 % of Control	91
CC(=O)c1cccc(Nc2nc(-n3ccnc3C(C)C)ccc2[N+](=O)[O-])c1 [Compound 101, 2-(3-acetylphenylamino)-6-[(2-isopropyl)imidazol-1-yl]-3-nitropyridine]	123	92				
CC(=O)c1cccc(Nc2nc(NCc3cccnc3)ccc2[N+](=O)[O-])c1 [Compound 102, 2-(3-acetylphenylamino)-6-[(3-pyridyl)methylamino]-3-nitropyridine]	126	92		122		
CC(=O)c1cccc(Nc2nc(NCc3ccncc3)ccc2[N+](=O)[O-])c1 [Compound 103, 2-(3-acetylphenylamino)-6-[(4-pyridyl)methylamino]-3-nitropyridine]	151	93	74			
CNc1ccc([N+](=O)[O-])c(Nc2ccc(N3CCOCC3)cc2)n1 [Compound 108, 2-(4-morpholinophenylamino)-6-(methylamino)-3-nitropyridine]	111	100				
O=[N+]([O-])c1ccc(N2CCC(O)CC2)nc1Nc1ccc(N2CCOCC2)cc1 [Compound 112, 2-(4-morpholinophenylamino)-6-(4-hydroxypiperidino)-3-nitropyridine]	148	103		122		
O=[N+]([O-])c1ccc(NCc2cccnc2)nc1Nc1ccc(N2CCOCC2)cc1 [Compound 115, 2-(4-morpholinophenylamino)-6-[(3-pyridyl)methylamino]-3-nitropyridine]	148		89	127		
O=[N+]([O-])c1ccc(NCCCn2ccnc2)nc1Nc1ccc(N2CCOCC2)cc1 [Compound 119, 2-(4-morpholinophenylamino)-6-[(3-imidazol-1-yl)propylamino]-3-nitropyridine]	167	107				
